One may read the EC50 as the concentration that produces a half-maximal response. Higher therefore signals lower potency in that assay.

Results on 29 compounds are retold here after patent publication US11434199B2, “Alcohol derivatives as KV7 potassium channel openers” (H. Lundbeck A/S, priority 2018, dated 2022).

The first assay addresses T1, hKv7.2/hKv7.3 (Homo sapiens, UniProt O43525+O43526).
T1 construct: P2A remnant (self-cleaving peptide between Kv7.3 and Kv7.2) (C); expressed in transfected cells
As to the kind of experiment: Thallium influx assay for potassium channel activation. It is filed as cell-based. Conditions: HEK-hKv7.2/hKv7.3 cells; FLIPR Potassium Assay kit; AUC readout normalized to a reference compound. The protocol:
(§1) A synthesized cDNA fragment encoding human Kv7.3 and human Kv7.2 separated by a P2A sequence was inserted into the pcDNA5/FRT/TO vector using the BamHI and XhoI restriction sites. The construct was then transfected into HEK Flp-In 293 cells using Lipofectamine2000. The transfected cells were grown for 48 hours in DMEM containing 10% (v/v) FBS and 1% PenStrep and subsequently maintained under selection in DMEM containing 10% (v/v) FBS, 1% PenStrep and 200 ug/mL Hygromycin B at 37° C. in a humidified atmosphere of 5% CO2.
The thallium influx assay for potassium channel activation was performed analogously to a published procedure (C. D. Weaver, et al., J Biomol Screen 2004, 9, 671-677) using the FLIPR Potassium Assay kit (Molecular Devices). HEK-hKv7.2/hKv7.3 cells were plated onto 96-well, black-walled, clear-bottomed culture plates (Corning, Acton, Mass., USA) at a density of 80,000 cells/well (100 μl/well) if the cells were assayed the following day, or 40,000 cells/well (100 μl/well) if the cells were assayed two days after seeding.
On the assay day, the medium was removed after which 50 uL/well of test compound diluted to 2× final concentration in HBSS containing 20 mM HEPES, and 50 uL/well of 2× dye load buffer were added. The cells were then incubated for 60 min at room temperature in the dark. Chloride-free stimulation buffer containing Tl^+ and K^+ at 5× final concentration (5× concentration: 5 mM in both cases) and test compound at 1× final concentration, were prepared during the incubation. The cells were then assayed in a FDSS7000EX Functional Drug Screening System (Hamamatsu). Following 60 sec of baseline fluorescence signal reading at 0.1 Hz, and 10 sec at 1 Hz, 25 uL/well of stimulation buffer were added and the fluorescence continuously measured for 50 sec at 1 Hz followed, by 4 min at 0.1 Hz. Compound effect was quantified using AUC as readout and normalized to a reference compound, which was included on each plate.
For the compound `C[C@H](NC(=O)CC(O)C(C)(C)C)c1cccc(OCC(F)(F)F)c1` (single isomer, unassigned) [Example 2a], the 50% effective concentration (EC50) came to 0.46 µM. Compound `C[C@H](NC(=O)CC(O)C(C)(C)C)c1cccc(OCC(F)(F)F)c1` (single isomer, unassigned) [Example 2b] gave an EC50 of 1.8 µM. This EC50 is about 3.9-fold higher than that of the compound before.

In turn, `C[C@H](NC(=O)CC(O)C(C)(C)C)c1cccc(OC(F)F)c1` (single isomer, unassigned) [Example 3a] had an EC50 of 11 µM. Consider `C[C@H](NC(=O)CC(O)C(C)(C)C)c1cccc(OC(F)F)c1` (single isomer, unassigned) [Example 3b], for which it took 1.5 µM to reach a half-maximal effect (EC50). On to `C[C@H](NC(=O)CC(O)C(C)(C)C)c1cccc(C(F)(F)F)c1` (single isomer, unassigned) [Example 4a], for which a half-maximal effect (EC50) was put at 11 µM.

For `C[C@H](NC(=O)CC(O)C(C)(C)C)c1cccc(C(F)(F)F)c1` (single isomer, unassigned) [Example 4b], a half-maximal response (EC50) required 1.2 µM.

In turn, `CC(C)C(O)(CC(=O)N[C@@H](C)c1cccc(OCC(F)(F)F)c1)C(F)(F)F` (single isomer, unassigned) [Example 7a] came in with an EC50 of 0.22 µM.

`CC(C)C(O)(CC(=O)N[C@@H](C)c1cccc(OCC(F)(F)F)c1)C(F)(F)F` (single isomer, unassigned) [Example 7b] showed a concentration giving a half-maximal response (EC50) of 1.5 µM. `CC[C@H](NC(=O)CC(O)C(C)(C)C)c1cccc(OC(F)(F)F)c1` (single isomer, unassigned) [Example 8a] showed a concentration for a half-maximal effect (EC50) of 0.43 µM. `CC[C@H](NC(=O)CC(O)C(C)(C)C)c1cccc(OC(F)(F)F)c1` (single isomer, unassigned) [Example 8b] returned a 50% effective concentration (EC50) of 3 µM. On to `C[C@H](NC(=O)CC(C)(O)C(F)(F)C(F)F)c1cccc(OC(F)(F)F)c1` (single isomer, unassigned) [Example 10b], for which the concentration for a half-maximal effect (EC50) was found to be 1.3 µM. In turn, `C[C@H](NC(=O)CC(O)C1CC(F)(F)C1)c1cccc(OC(F)(F)F)c1` (single isomer, unassigned) [Example 11b] came in with a concentration for a half-maximal effect (EC50) of 4.5 µM. This EC50 is about 3.5-fold higher than that of the compound before.

In turn, `CC(C)C(O)CC(=O)N[C@@H](C)c1cccc(OCC(F)(F)F)c1` (single isomer, unassigned) [Example 12a] showed a 50% effective concentration (EC50) of 1.6 µM. `CC(C)C(O)CC(=O)N[C@@H](C)c1cccc(OCC(F)(F)F)c1` (single isomer, unassigned) [Example 12b] returned an EC50 of 5.9 µM. For `C[C@H](NC(=O)CC(C)(O)CC(F)(F)F)c1cccc(OC(F)(F)F)c1` (single isomer, unassigned) [Example 13b], the midpoint of the response, the EC50, lay at 2.9 µM.

Consider `C[C@H](NC(=O)CC(O)C1(C(F)F)CC1)c1cccc(OC(F)(F)F)c1` (single isomer, unassigned) [Example 14a], for which a half-maximal response (EC50) required 2 µM. The EC50 values of the last two compounds are within 1.5-fold of each other. Still for that read-out and setting: then `C[C@H](NC(=O)C[C@@H](O)C1(C(F)F)CC1)c1cccc(OC(F)(F)F)c1` (single isomer, unassigned) [Example 14b], with 6.6 µM; and `C[C@H](NC(=O)C[C@@](C)(O)C1(F)CC1)c1cccc(OC(F)(F)F)c1` (single isomer, unassigned) [Example 15a], with 2.1 µM; and `C[C@H](NC(=O)CC(C)(O)C1(F)CC1)c1cccc(OC(F)(F)F)c1` (single isomer, unassigned) [Example 15b], with 11 µM. Regarding `C[C@H](NC(=O)CC(O)C1(C(F)(F)F)CC1)c1cccc(OC(F)(F)F)c1` (single isomer, unassigned) [Example 16a], the EC50 came to 3 µM. On to `C[C@H](NC(=O)CC(O)C1(C(F)(F)F)CC1)c1cccc(OC(F)(F)F)c1` (single isomer, unassigned) [Example 16b], for which the EC50 turned out to be 10 µM. This EC50 lies about 3.3-fold higher than the previous one. As to `C[C@H](NC(=O)CC(C)(O)C1CC1)c1cccc(OCC(F)(F)F)c1` (single isomer, unassigned) [Example 18a], the EC50 worked out at 1.3 µM. `C[C@H](NC(=O)CC(C)(O)C1CC1)c1cccc(OCC(F)(F)F)c1` (single isomer, unassigned) [Example 18b] showed an EC50 of 7.1 µM. For the compound `C[C@H](NC(=O)CC(C)(O)C(F)(F)F)c1cccc(OCC(F)(F)F)c1` (single isomer, unassigned) [Example 19a], the half-maximal effective concentration (EC50) is 1.7 µM. `C[C@H](NC(=O)CC(C)(O)C(F)(F)F)c1cccc(OCC(F)(F)F)c1` (single isomer, unassigned) [Example 19b] showed a concentration giving a half-maximal response (EC50) of 3.4 µM. `CC(C)C(O)CC(=O)N[C@@H](C)c1cccc(OC(F)(F)F)c1` (single isomer, unassigned) [Example 20a] yielded a concentration giving a half-maximal response (EC50) of 3.1 µM.

For `CC(C)C(O)CC(=O)N[C@@H](C)c1cccc(OC(F)(F)F)c1` (single isomer, unassigned) [Example 20b], a half-maximal response (EC50) required 14 µM.

The next assay has as its target T1, hKv7.2/hKv7.3. As to the kind of experiment: Automated whole cell patch-clamp functional test of the HEK-hKv7.2/hKv7.3 cell line. It is filed as cell-based. Conditions: stable HEK-hKv7.2/hKv7.3 cell line. On the procedure:
as §1
Regarding `CCOC(=O)Nc1ccc(NCc2ccc(F)cc2)cc1N` [Retigabine, N-(2-amino-4-(4-fluorobenzylamino)-phenyl) carbamic acid ethyl ester], the “effect on Kv7-current” value is recorded as “potentiated”. As to `O=C1c2ccccc2C(Cc2ccncc2)(Cc2ccncc2)c2ccccc21` [XE991], the “effect on Kv7-current” value is reported as “sensitive”.
